Data set [1] can be described thus: Solubility. Format: physicochemical. The settings on record: dependence on pH. The source says:
The pharmaceutical composition prepared according to the present invention has a good and uniform dissolution in different dissolution media.

Data set [2] can be described thus: Permeability. Format: in vitro ADME.
In data set [3] the target is wild-type EGFR (Homo sapiens, UniProt P00533). To be noted: background statement, WO2016054987; cited from earlier work.
Data set [4] concerns the target EGFR T790M mutant (Homo sapiens, UniProt P00533, T790M). To be noted: background statement, WO2016054987; cited from earlier work.

Chain of EGFR T790M mutant (P00533 25-1210 T790M): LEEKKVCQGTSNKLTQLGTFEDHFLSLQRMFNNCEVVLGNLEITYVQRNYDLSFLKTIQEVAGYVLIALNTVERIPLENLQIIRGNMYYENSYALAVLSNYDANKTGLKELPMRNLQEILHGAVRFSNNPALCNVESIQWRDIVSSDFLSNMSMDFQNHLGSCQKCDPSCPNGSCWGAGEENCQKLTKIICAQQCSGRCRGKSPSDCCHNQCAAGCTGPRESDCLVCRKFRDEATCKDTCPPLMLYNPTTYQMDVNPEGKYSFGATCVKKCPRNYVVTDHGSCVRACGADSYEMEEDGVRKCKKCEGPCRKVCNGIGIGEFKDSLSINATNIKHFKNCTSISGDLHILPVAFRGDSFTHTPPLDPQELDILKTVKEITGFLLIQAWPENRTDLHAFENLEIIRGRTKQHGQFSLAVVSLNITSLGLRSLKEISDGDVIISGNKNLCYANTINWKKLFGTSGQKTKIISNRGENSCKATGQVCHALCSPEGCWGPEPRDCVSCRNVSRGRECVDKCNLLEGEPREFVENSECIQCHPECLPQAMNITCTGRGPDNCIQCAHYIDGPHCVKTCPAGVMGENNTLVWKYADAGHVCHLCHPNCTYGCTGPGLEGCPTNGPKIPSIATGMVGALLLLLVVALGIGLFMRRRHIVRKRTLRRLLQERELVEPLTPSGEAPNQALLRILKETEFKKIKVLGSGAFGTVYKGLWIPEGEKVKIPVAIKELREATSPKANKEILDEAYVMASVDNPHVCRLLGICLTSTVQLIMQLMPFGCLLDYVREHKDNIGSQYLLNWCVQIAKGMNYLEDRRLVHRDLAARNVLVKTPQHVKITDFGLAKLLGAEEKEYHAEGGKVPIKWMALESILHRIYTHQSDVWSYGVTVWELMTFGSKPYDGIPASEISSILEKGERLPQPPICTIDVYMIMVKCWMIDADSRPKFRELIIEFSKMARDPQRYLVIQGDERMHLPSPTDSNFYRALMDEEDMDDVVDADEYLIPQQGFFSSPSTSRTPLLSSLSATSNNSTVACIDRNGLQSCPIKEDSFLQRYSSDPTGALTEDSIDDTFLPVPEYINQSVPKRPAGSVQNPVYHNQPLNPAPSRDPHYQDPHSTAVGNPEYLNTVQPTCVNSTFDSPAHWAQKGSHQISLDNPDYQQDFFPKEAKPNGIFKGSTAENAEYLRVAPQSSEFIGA
Chain of wild-type EGFR (P00533 25-1210): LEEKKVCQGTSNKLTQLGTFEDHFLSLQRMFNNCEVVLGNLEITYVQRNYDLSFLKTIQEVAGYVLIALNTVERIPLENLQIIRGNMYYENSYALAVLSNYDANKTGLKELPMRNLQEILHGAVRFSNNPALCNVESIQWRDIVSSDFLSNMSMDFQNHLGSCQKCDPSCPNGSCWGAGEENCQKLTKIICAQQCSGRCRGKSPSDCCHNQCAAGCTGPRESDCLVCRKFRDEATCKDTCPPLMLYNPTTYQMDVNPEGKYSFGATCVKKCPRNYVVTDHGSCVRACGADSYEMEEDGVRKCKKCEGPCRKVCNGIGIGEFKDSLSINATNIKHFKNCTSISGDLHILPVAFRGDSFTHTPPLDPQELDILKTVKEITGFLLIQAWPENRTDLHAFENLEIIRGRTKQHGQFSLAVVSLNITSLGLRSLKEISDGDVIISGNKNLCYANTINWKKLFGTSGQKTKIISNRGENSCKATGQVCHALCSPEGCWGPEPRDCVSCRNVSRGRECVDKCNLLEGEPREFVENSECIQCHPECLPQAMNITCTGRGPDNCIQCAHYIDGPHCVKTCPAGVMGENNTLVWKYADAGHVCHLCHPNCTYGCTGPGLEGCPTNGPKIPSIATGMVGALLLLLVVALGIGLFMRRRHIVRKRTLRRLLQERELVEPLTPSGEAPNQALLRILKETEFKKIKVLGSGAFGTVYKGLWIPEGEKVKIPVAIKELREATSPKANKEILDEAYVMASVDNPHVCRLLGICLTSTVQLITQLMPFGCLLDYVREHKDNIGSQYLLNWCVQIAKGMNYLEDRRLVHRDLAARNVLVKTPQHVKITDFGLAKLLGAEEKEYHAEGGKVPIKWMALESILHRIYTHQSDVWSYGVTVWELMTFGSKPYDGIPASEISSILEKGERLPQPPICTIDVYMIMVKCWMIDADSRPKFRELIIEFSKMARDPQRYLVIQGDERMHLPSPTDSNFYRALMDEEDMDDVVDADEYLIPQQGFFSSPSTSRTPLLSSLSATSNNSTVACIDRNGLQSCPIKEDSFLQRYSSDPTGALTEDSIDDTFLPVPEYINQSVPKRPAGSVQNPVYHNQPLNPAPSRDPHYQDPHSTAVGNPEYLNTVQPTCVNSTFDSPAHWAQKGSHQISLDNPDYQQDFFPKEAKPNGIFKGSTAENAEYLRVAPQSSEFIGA

With `C=CC(=O)Nc1cc(Nc2nccc(-c3cn(C4CC4)c4ccccc34)n2)c(OC)cc1N(C)CCN(C)C` [compound of formula I, N-(5-((4-(1-cyclopropyl-1H-indol-3-yl)pyrimidin-2-yl)amino)-2-((2-(dimethylamino)ethyl)(methyl)amino)-4-methoxyphenyl)acrylamide], in data set [1], the solubility entry is recorded as “greatly affected by pH”. Also, the permeability result in data set [2] is on record as “low permeability”. Moreover, the “activity on wild-type EGFR” value in data set [3] is listed as “no or low activity”. Further, in data set [4], the “selectivity for inhibiting the EGFR T790M mutant” value is reported as “high selectivity”.
